In brackets after ≈: the same amount, converted by molar mass.
Legend:
Type in all cases: cell-based
[1] = tested on: varicella zoster virus (Kawaguchi strain); assay: Anti-viral activity against varicella zoster virus, plaque reduction assay in human embryonic lung (HEL) cells; settings: Human alphaherpesvirus 3, 72 h, 3 days, read-out: PI50 (50% plaque decrease concentration)
Description: The activity of test compounds against varicella zoster virus was measured by plaque reduction assay. Confluent monolayers of human embryonic lung (HEL) cells grown in 6-well plates were infected with varicella zoster virus (Kawaguchi strain) in such a way that each well might have 100 plaque-forming units. After incubated at 37 C. for one hour in 5% CO2 atmosphere, the inoculum was removed and 3 ml of maintenance media containing the test compound having a varying concentration was added thereto. The incubation was continued for 3 days. After incubation, the cells were fixed and stained, the number of plaques was counted microscopically. In comparison to the control, the 50% plaque decrease concentration (PI50) of the test compound was determined. As a comparative compound, acyclovir was used.

HSV-1 (Tomioka strain) = assay: Anti-viral activity against herpes simplex virus, neutral red dye-uptake method in Vero cells; settings: Human alphaherpesvirus 1, 72 h, 3 days at 37° C., read-out: ID50 (the source's name)
Description: (§1) The anti-viral activity of the prepared compounds against herpes simplex virus was measured by neutral red dye-uptake method (J. Infect. Dis. 148: 868 (1983)) with modification. Precisely, threefold dilutions of the compounds were prepared in 100 μl volumes of culture medium in the wells of a 96-well culture plate. Sixty microliters of a suspension of Vero cells (3×10^5 cells/ml) were then dispensed into each well. HSV-1 (Tomioka strain) was diluted in medium to approximately 100 TCID50 /40 μl, as determined by prior titration in a similar dye uptake assay, and 40 μl of viral suspension were added to the respective wells. Control wells containing no test compound and no virus (cell control) or no cells (blank control) were included in each plate. After 3 days incubation at 37° C. in 5% CO2 atmosphere, 50 μl of neutral red dye (0.15% in saline, pH 5.5) was dispensed into each well and the cultures were incubated for a further 45 min at 37° C. Unincorporated dye was removed by rinsing with PBS. The dye incorporated by viable cells was then eluted into 100 μl per well of citrate ethanol buffer (pH 4.2; equal volumes of 0.1 M Sorensen citrate buffer and ethanol), and absorbance at 540 nm of the solution was measured. […] As a comparative compound, acyclovir was used.

in vitro = settings: african green monkey, vero cells
Description: as §1

| SMILES | IC50 [1] [µg/mL] | EC50 (HSV-1 (Tomioka strain)) [µg/mL] | CC50 at 72 h (in vitro) [µg/mL] |
| --- | --- | --- | --- |
| O=c1[nH]c(=O)n(C[C@]2(CO)C[C@@H]2CO)cc1/C=C/Br (relative stereo) [Example 15, 1-[1'α,2'β-2-bis(hydroxymethyl)cyclopropanyl-yl]methyl-5-[(E)-2-bromoethenyl]-2,4(1H,3H)-pyrimidinedione] | 87 (≈ 263 µM) | 78 (≈ 236 µM) | > 500 |
| O=c1[nH]c(=O)n(C[C@]2(CO)C[C@H]2CO)cc1F [Example 1, 1-[1'S,2'R-bis(hydroxymethyl)-cyclopropan-1'-yl]methyl-5-fluoro-2,4(1H,3H)pyrimidinedione] | > 100 | > 500 | > 500 |
| O=c1[nH]c(=O)n(C[C@]2(CO)C[C@H]2CO)cc1Cl [Example 2, 1-[1'S,2'R-bis(hydroxymethyl)-cyclopropan-1'-yl]methyl-5-chloro-2,4(1H,3H)-pyrimidinedione] | > 100 | 295 (≈ 1130 µM) | > 500 |
| O=c1[nH]c(=O)n(C[C@]2(CO)C[C@H]2CO)cc1Br [Example 3, 1-[1'S,2'R-bis(hydroxymethyl)-cyclopropan-1'-yl]methyl-5-bromo-2,4(1H,3H)-pyrimidinedione] | 97 (≈ 318 µM) | 215 (≈ 705 µM) | > 500 |
| O=c1[nH]c(=O)n(C[C@]2(CO)C[C@H]2CO)cc1I [Example 4, 1-[1'S,2'R-bis(hydroxymethyl)-cyclopropan-1'-yl]methyl-5-iodo-2,4(1H,3H)-pyrimidinedione] | 9.3 (≈ 26.4 µM) | 90 (≈ 256 µM) | > 500 |
| O=c1[nH]c(=O)n(C[C@]2(CO)C[C@H]2CO)cc1C(F)(F)F [Example 5, 1-[1'S,2'R-bis(hydroxymethyl)-cyclopropan-1'-yl]methyl-5-trifluoromethyl-2,4(1H,3H)-pyrimidinedione] | > 100 | > 500 | 234 (≈ 795 µM) |
| C=Cc1cn(C[C@]2(CO)C[C@H]2CO)c(=O)[nH]c1=O [Example 6, 1-[1'S,2'R-bis(hydroxymethyl)cyclopropan-1'-yl]methyl-5-ethenyl-2,4(1H,3H)-pyrimidinedione] | 11.1 (≈ 44 µM) | 3.2 (≈ 12.7 µM) | > 500 |
| O=c1[nH]c(=O)n(C[C@]2(CO)C[C@H]2CO)cc1/C=C/Cl [Example 7, 1-[1'S, 2'R-bis(hydroxymethyl)-cyclopropan-1'-yl]methyl-5-[(E)-2-chloroethenyl]-2,4(1H,3H)-pyrimidinedione] | 0.07 (≈ 0.244 µM) | 4.3 (≈ 15 µM) | > 500 |
| O=c1[nH]c(=O)n(C[C@]2(CO)C[C@H]2CO)cc1/C=C/Br [Example 8, 1-[1'S,2'R-bis(hydroxymethyl)-cyclopropan-1'-yl]methyl-5-[(E)-2-bromoethenyl]-2,4(1H,3H)-pyrimidinedione] | 0.031 (≈ 0.0936 µM) | 14.5 (≈ 43.8 µM) | > 500 |
| O=c1[nH]c(=O)n(C[C@]2(CO)C[C@H]2CO)cc1/C=C/I [Example 10, 1-[1'S,2'R-bis(hydroxymethyl)-cyclopropan-1'-yl]methyl-5-[(E)-2-iodoethenyl]-2,4(1H,3H)-pyrimidinedione] | 0.054 (≈ 0.143 µM) | 24.6 (≈ 65.1 µM) | 330 (≈ 873 µM) |
| C#Cc1cn(C[C@]2(CO)C[C@H]2CO)c(=O)[nH]c1=O [Example 11, 1-[1'S,2'R-bis(hydroxymethyl)-cyclopropan-1'-yl]methyl-5-ethynyl-2,4(1H,3H)-pyrimidinedione] | > 100 | 310 (≈ 1240 µM) | > 500 |
| CC#Cc1cn(C[C@]2(CO)C[C@H]2CO)c(=O)[nH]c1=O [Example 12, 1-[1'S,2'R-bis(hydroxymethyl)-cyclopropan-1'-yl]methyl-5-(1-propynyl)-2,4(1H,3H)-pyrimidinedione] | 19.8 (≈ 74.9 µM) | 325 (≈ 1230 µM) | > 500 |
| CCc1cn(C[C@]2(CO)C[C@H]2CO)c(=O)[nH]c1=O [Example 13, 1-[1'S,2'R-bis(hydroxymethyl)-cyclopropan-1'-yl]methyl-5-ethyl-2,4(1H,3H)-pyrimidinedione] | 95 (≈ 374 µM) | 24.3 (≈ 95.6 µM) | > 500 |
| O=c1[nH]c(=O)n(C[C@@]2(CO)C[C@@H]2CO)cc1/C=C/Br [Example 14, 1-[1'R,2'S-bis(hydroxymethyl)-cyclopropan-1'-yl]methyl-5-[(E)-2-bromoethenyl]-2,4(1H,3H)-pyrimidinedione] | 7.4 (≈ 22.3 µM) | > 500 | > 500 |
| Nc1nc2c(ncn2COCCO)c(=O)[nH]1 [acyclovir, reference compound] | – | 0.8 (≈ 3.55 µM) | > 500 |
